Experimental data published in publication PMC6219668 (Oncotarget, 2018).

Test system: panel of nearly 500 cancer cell lines
Assay: Cancer Cell Line Encyclopedia profiling, 3-day CellTiter-Glo
Type: cell-based
Conditions: Homo sapiens

`CN(C)C(=O)c1cc2cnc(Nc3ccc(N4CCNCC4)cn3)nc2n1C1CCCC1` [Ribociclib, 7-cyclopentyl-2-(5-piperazin-1-yl-pyridin-2-ylamino)-7H-pyrrolo[2,3-d]pyrimidine-6-carboxylic acid dimethylamide] was tested, and the EC50 (HPAF-II) was > 8000 nM, the IC50 (HPAF-II) was > 8 µM and the EC50 (HSC-2) was > 8000 nM. For the same compound, the IC50 (HSC-2) was > 8 µM, the EC50 (HT1197) was 1840 nM and the IC50 (HT1197) was > 8 µM. For the same compound, the EC50 (HT-29) was > 8000 nM, the IC50 (HT-29) was 5.83 µM and the EC50 (HT-144) was > 8000 nM. The IC50 (HT-144) was > 8 µM, the EC50 (HT-1080) was 2730 nM and the IC50 (HT-1080) was > 8 µM. For the same compound, the EC50 (HepG2) was 231 nM, the IC50 (HepG2) was > 8 µM and the EC50 (Hs 294T) was 4660 nM. The IC50 (Hs 294T) was > 8 µM, the EC50 (Hs 683) was > 8000 nM and the IC50 (Hs 683) was > 8 µM. For the same compound, the EC50 (Hs 695T) was > 8000 nM, the IC50 (Hs 695T) was > 8 µM and the EC50 (Hs746T) was 436 nM. For the same compound, the IC50 (Hs746T) was > 8 µM, the EC50 (Hs-578T) was > 8000 nM and the IC50 (Hs-578T) was > 8 µM. For the same compound, the EC50 (HuCCT-1) was > 8000 nM, the IC50 (HuCCT-1) was > 8 µM and the EC50 (HuH-1) was > 8000 nM. The IC50 (HuH-1) was > 8 µM, the EC50 (HuP-T3) was > 8000 nM and the IC50 (HuP-T3) was > 8 µM. For the same compound, the EC50 (HuP-T4) was 2240 nM, the IC50 (HuP-T4) was 4.3 µM and the EC50 (HuT78) was > 8000 nM. The IC50 (HuT78) was > 8 µM, the EC50 (IGR-37) was 207 nM and the IC50 (IGR-37) was > 8 µM. For the same compound, the EC50 (IGROV-1) was > 8000 nM, the IC50 (IGROV-1) was > 8 µM and the EC50 (IM95) was > 8000 nM. The IC50 (IM95) was > 8 µM, the EC50 (IMR-32) was 287 nM and the IC50 (IMR-32) was 1.56 µM. The EC50 (JVM-3) was > 8000 nM, the IC50 (JVM-3) was > 8 µM and the EC50 (Jurkat) was 3750 nM. The IC50 (Jurkat) was 3.69 µM, the EC50 (KALS-1) was > 8000 nM and the IC50 (KALS-1) was > 8 µM. The EC50 (KARPAS-299) was 878 nM, the IC50 (KARPAS-299) was > 8 µM and the EC50 (KARPAS-422) was > 8000 nM. For the same compound, the IC50 (KARPAS-422) was > 8 µM, the EC50 (KCL-22) was > 8000 nM and the IC50 (KCL-22) was 6.12 µM. For the same compound, the EC50 (KMS-11) was 233 nM, the IC50 (KMS-11) was > 8 µM and the EC50 (KMS-12-BM) was > 8000 nM. For the same compound, the IC50 (KMS-12-BM) was > 8 µM, the EC50 (KNS-42) was 134 nM and the IC50 (KNS-42) was > 8 µM. For the same compound, the EC50 (KNS-62) was 934 nM, the IC50 (KNS-62) was > 8 µM and the IC50 (KU812) was > 8 µM. For the same compound, the EC50 (KYSE-30) was > 8000 nM, the IC50 (KYSE-30) was > 8 µM and the EC50 (KYSE-70) was 1200 nM. The IC50 (KYSE-70) was 5.61 µM, the EC50 (KYSE-140) was 436 nM and the IC50 (KYSE-140) was > 8 µM. For the same compound, the EC50 (KYSE-150) was 2920 nM, the IC50 (KYSE-150) was > 8 µM and the EC50 (KYSE-180) was 507 nM. For the same compound, the IC50 (KYSE-180) was > 8 µM, the EC50 (KYSE-410) was > 8000 nM and the IC50 (KYSE-410) was > 8 µM. The EC50 (KYSE-450) was > 8000 nM, the IC50 (KYSE-450) was > 8 µM and the EC50 (KYSE-510) was > 8000 nM. The IC50 (KYSE-510) was > 8 µM, the EC50 (KYSE-520) was 6060 nM and the IC50 (KYSE-520) was > 8 µM. The EC50 (L-363) was 1040 nM, the IC50 (L-363) was > 8 µM and the EC50 (L-428) was 2030 nM. The IC50 (L-428) was > 8 µM, the EC50 (LCLC-103H) was > 8000 nM and the IC50 (LCLC-103H) was > 8 µM. The EC50 (LN-18) was > 8000 nM, the IC50 (LN-18) was > 8 µM and the EC50 (LN-229) was > 8000 nM. The IC50 (LN-229) was > 8 µM, the EC50 (LOX IMVI) was 2920 nM and the IC50 (LOX IMVI) was > 8 µM. For the same compound, the EC50 (LS-123) was > 8000 nM, the IC50 (LS-123) was > 8 µM and the EC50 (LS-411N) was 3420 nM. For the same compound, the IC50 (LS-411N) was 1.71 µM, the EC50 (LS-513) was > 8000 nM and the IC50 (LS-513) was > 8 µM. The EC50 (Lu-99) was 564 nM, the IC50 (Lu-99) was 3.69 µM and the EC50 (M059J) was > 8000 nM. The IC50 (M059J) was > 8 µM.
